Laboratory results published in patent US10987325B2, “Compositions and uses thereof for treating inflammatory diseases and probiotic compositions” (CHAIN Biotechnology Limited, priority 2016, dated 2021).

Tests used:
[1] = tested on: ex vivo colon tissue samples; assay: Ex-vivo human colon tissue model, TNF-α stimulus, protein in culture supernatants by Luminex; type: cell-based
From the text: Colorectal specimens can be obtained from surgical resections of intestinal tissue or from biopsies, after receiving signed informed consent from the patients. Following resection of tissue, specimens are kept in a specimen collection pot containing DMEM for transportation to the laboratory. Put the specimen in a Petri plate with some medium. Strip the muscle from the resected specimen with sterile scalpel. Transfer the remaining tissue into a new Petri plate with medium and cut the tissue into explants comprising both epithelial and muscularis mucosae (Berry […]. Methods Mol. Biol. 2011; 665: 133-60). Proceed to assay. To induce inflammation, explants are incubated with 100 μl of inflammatory stimulus (TNF-α 15 μg/ml) in 96-well U-bottom sterile plates. Incubate explants for one hour with […] of complete medium (DMEM containing FCS, L-glutamine and antibiotics). […] Tissue explants are then cultured at 37° C. in an atmosphere containing 5% CO2 for 24 hours. Negative controls are tissue explants cultured without stimulus nor candidate compounds (add 200 μl of complete medium). Positive controls are explants treated only with inflammatory stimulus. Following culture, remove tissue explants from culture wells, spin down plates and harvest 180 μl of the culture supernatant. Freeze supernatants and tissue explants at -80° C. Proceed to quantification of analytes of interest in supernatants and/or tissue explants. The Luminex method was used to determine protein concentration in culture supernatants: Luminex Protocol: In house assay was conducted by Dr Carolina Herrera at St Mary's Hospital, Paddington, London. Luminex Assay Buffer: PBS, goat serum, mouse serum, Tween 20, Tris pH 7-8. Luminex Wash Buffer: PBS, Tween-20. Procedure: […] Relative protein level [ng/mL] was determined using a standard curve.

[2] = tested on: primary human intestinal organoids; assay: Primary human intestinal organoids, TNF-α (40 ng/mL) induced inflammation, mRNA panel of inflammation factors by qPCR
[3] = tested on: primary human intestinal organoids; assay: Primary human intestinal organoids, TNFα (40 ng/mL) induced inflammation, mRNA of NF-κB and TNFα by qPCR; type: cell-based; conditions: 10 μM, 18 hours
IL-23 = assay: Primary human intestinal organoids, TNF-α (60 ng/mL), IL-23 mRNA at increasing concentrations, qPCR; type: cell-based; conditions: 24 hours; for impact on IL-23 expression compared with butyrate: at 10-100 μM
Experimental: Primary human intestinal organoids were cultured for 8 weeks prior to experiments as described in […] et al. (2013) Stem Cell Reports.

[4] = tested on: ex vivo colon tissue samples; assay: Ex-vivo human colon tissue model, TNF-α stimulus, Proteome Profiler Human XL Cytokine Array; type: cell-based; conditions: TNF-α 60 min then 10 mM for 24 hours, versus TNF-α alone
Experimental: To induce inflammation, explants are incubated with 100 μl of inflammatory stimulus (TNF-α 15 μg/ml) in 96-well U-bottom sterile plates. Incubate explants for one hour with […] of complete medium (DMEM containing FCS, L-glutamine and antibiotics). […] Tissue explants are then cultured at 37° C. in an atmosphere containing 5% CO2 for 24 hours. Negative controls are tissue explants cultured without stimulus nor candidate compounds (add 200 μl of complete medium). Positive controls are explants treated only with inflammatory stimulus. Following culture, remove tissue explants from culture wells, spin down plates and harvest 180 μl of the culture supernatant. Freeze supernatants and tissue explants at −80° C. Proceed to quantification of analytes of interest in supernatants and/or tissue explants. A Proteome Profiler™ Array was used to measure the relative abundance of a larger set of proteins and cytokines involved in the immune response. The experimental conditions and the preparation of the colon tissue samples was the same as described above. The Human XL Cytokine Array Kit (www.rndsystems.com), Catalog Number ARY022 was used for this experiment. Cytokines, chemokines and growth factors are extracellular signaling molecules that mediate cell to cell communication. These molecules are released from cells and have critical roles in many biological processes such as cellular growth, differentiation, gene expression, migration, immunity and inflammation. In most biological processes, multiple cytokines operate in a large network, where the action of one cytokine is regulated by the presence or absence of other cytokines. The Human XL Cytokine Array Kit is a rapid, sensitive, and economic tool to simultaneously detect cytokine differences between samples. The relative expression levels of 102 human soluble proteins can be determined without performing numerous immunoassays. Capture and control antibodies have been spotted in duplicate on nitrocellulose membranes. […]

[5] = TNF-α 60 min then 10 mM for 24 hours, versus TNF-α alone
[6] = ex vivo colon tissue, data not shown
[7] = TNF-α 40 ng/mL, sodium salts at 10 μM, 18 hours, versus TNF-α alone

(R)-3-hydroxybutyrate [(R)-3-HB]
protein concentration of IL-1β [1, 5]: decreased | protein concentration of IL-6 [1, 5]: decreased | protein concentration of IL-12 [1, 5]: decreased | protein concentration of anti-inflammatory cytokine IL-10 [1, 5]: increased | effect on major protective regulators of intestinal inflammation compared with butyrate [1, 6]: greater inducing effect | effect on multiple pro-inflammatory regulators of IBD compared with butyrate [1, 6]: greater reducing effect | mRNA expression of IL-6 [2, 7]: decreased | mRNA expression of IL-23 [2, 7]: decreased | mRNA expression of NF-κβ [2, 7]: decreased | mRNA expression of TNF-α [2, 7]: decreased | mRNA expression of anti-inflammatory cytokine IL-10 [2, 7]: increased | mRNA expression of anti-inflammatory cytokine TGF-β1 [2, 7]: increased | effect on major protective regulators of intestinal inflammation compared with butyrate ([2]; organoids, data not shown): greater inducing effect | effect on multiple pro-inflammatory regulators of IBD compared with butyrate ([2]; organoids, data not shown): greater reducing effect | mRNA expression of NF-κB [3]: decreased | mRNA expression of TNF-α [3]: decreased | impact on IL-23 expression compared with butyrate (IL-23): greater reducing impact | impact on IL-23 expression compared with butyrate (IL-23; listed as (R)-3HB): greater reducing effect | concentrations effective at reducing expression of IL-23 (IL-23; sodium salts): 10 to 100 µM | protein concentration of IL-23 (relative abundance, non-quantitative) [4]: decreased | protein concentration of MMP9 (relative abundance, non-quantitative) [4]: decreased | protein concentration of TNF-α (relative abundance, non-quantitative) [4]: decreased
